Assay results as given in US4180658A, “7[-2-Alkoxyamino(acetamido)]cephalosporin derivatives” (Bristol-Myers Company, priority 1978, dated 1979).
≈ marks a conversion by molar mass, not a printed value. Where two headings read alike, the source gives them in different places.

Experiments:
[1] = Mouse Blood Levels; format: in vivo; settings: im, 40 mg/kg, IM 40 mgm./kg., phosphate buffer; for concentration at 0.25 h: 0.25 hours after administration; for concentration at 0.5 h: 0.5 hours after administration; for concentration at 1 h: 1 hour after administration; for concentration at 1.5 h: 1.5 hours after administration
Procedure: (§1) Biological testing was performed according to the procedures described by F. Leitner et al., Antimicrobial Agents and Chemotherapy 10(3), 426-435 (September, 1976).
*Each group consisted of 6 animals and one blood sample was taken from
(§2) Compounds prepared in phosphate buffer and dosed IM at 40 mgm./kg.
Assay Organism: B. subtilis at pH 6.0

[2] = system: E. coli Juhl; assay: Antibiotic Activity in Nutrient Broth (MIC); format: cell-based; settings: Escherichia coli, 10^-4 dilution
Procedure: as §1
(§3) Antibiotic Activity in Nutrient Broth
(§4) **Dilution of overnight broth culture.

[3] = system: Str. faecalis; assay: Antibiotic Activity in Nutrient Broth (MIC); format: cell-based; settings: Enterococcus faecalis, Table 1, 10^-4 dilution
Procedure: as §1, §3, §4

[4] = system: Ps. aeruginosa carb.; assay: Antibiotic Activity in Nutrient Broth (MIC); format: cell-based; settings: Pseudomonas aeruginosa, Table 1, 10^-4 dilution
Procedure: as §1, §3, §4

[5] = system: Pr. vulgaris; assay: Antibiotic Activity in Nutrient Broth (MIC); format: cell-based; settings: Proteus vulgaris, Table 1, 10^-4 dilution
Procedure: as §1, §3, §4

[6] = system: S. aureus Meth-Res; assay: Antibiotic Activity in Nutrient Broth (MIC); format: cell-based; settings: Staphylococcus aureus, 10^-3 dilution
Procedure: as §1, §3, §4

[7] = system: K. pneumoniae; assay: Antibiotic Activity in Nutrient Broth (MIC); format: cell-based; settings: 10^-4 dilution
Procedure: as §1, §3, §4

[8] = system: Ser. marcescens; assay: Antibiotic Activity in Nutrient Broth (MIC); format: cell-based
Procedure: as §1, §3, §4

[9] = system: S. aureus Smith; assay: Antibiotic Activity in Nutrient Broth (MIC); format: cell-based; settings: Staphylococcus aureus, 10^-4 dilution
Procedure: as §1, §3, §4

[10] = system: Pr. rettgeri; assay: Antibiotic Activity in Nutrient Broth (MIC); format: cell-based; settings: Providencia rettgeri, Table 1, 10^-4 dilution
Procedure: as §1, §3, §4

[11] = system: Pr. mirabilis; assay: Antibiotic Activity in Nutrient Broth (MIC); format: cell-based
Procedure: as §1, §3, §4

[12] = system: S. aureus BX1633; assay: Antibiotic Activity in Nutrient Broth (MIC); format: cell-based; settings: Staphylococcus aureus
Procedure: as §1, §3, §4

[13] = system: Pr. morganii; assay: Antibiotic Activity in Nutrient Broth (MIC); format: cell-based; settings: Morganella morganii, 10^-4 dilution
Procedure: as §1, §3, §4

[14] = system: Ps. aeruginosa; assay: Antibiotic Activity in Nutrient Broth (MIC); format: cell-based; settings: 10^-4 dilution
Procedure: as §1, §3, §4

[15] = system: Sal. enteritidis; assay: Antibiotic Activity in Nutrient Broth (MIC); format: cell-based; settings: Salmonella enterica, Table 1, 10^-4 dilution
Procedure: as §1, §3, §4

[16] = system: Ent. cloacae; assay: Antibiotic Activity in Nutrient Broth (MIC); format: cell-based
Procedure: as §1, §3, §4

[17] = Solubility (dosing preparation in phosphate buffer); format: physicochemical; settings: compounds prepared in phosphate buffer for dosing
Excerpt: as §2

[18] = system: Staphylococcus aureus; assay: Secondary in vitro Screening (MIC); format: cell-based; settings: Table 2, each line another isolate
Procedure: as §1

[19] = system: Klebsiella pneumoniae; assay: Secondary in vitro Screening (MIC); format: cell-based; settings: Table 2, each line another isolate
Procedure: as §1

[20] = system: Enterobacter species; assay: Secondary in vitro Screening (MIC); format: cell-based; settings: Table 2
Procedure: as §1

[21] = system: Pseudomonas aeruginosa; assay: Secondary in vitro Screening (MIC); format: cell-based; settings: Table 2, each line another isolate
Procedure: as §1

[22] = system: Str. pyogenes; assay: Antibiotic Activity in Nutrient Broth (MIC); format: cell-based; settings: Streptococcus pyogenes, 10^-3 dilution, 45% AAB + 5% serum + 50% broth
Procedure: as §1, §3
(§5) *45% AAB + 5% serum + 50% broth listed above.
as §4

[23] = system: S. pneumoniae; assay: Antibiotic Activity in Nutrient Broth (MIC); format: cell-based; settings: Streptococcus pneumoniae, 10^-3 dilution of overnight broth culture, 45% AAB + 5% serum + 50% broth
Procedure: as §1, §3, §5, §4

[24] = system: S. aureus; assay: Antibiotic Activity in Nutrient Broth + 50% serum (MIC); format: cell-based; settings: Staphylococcus aureus, Table 1, 10^-4 dilution
Procedure: as §1, §3, §4

[25] = system: Haemophilus influenzae; assay: Secondary in vitro Screening (MIC); format: cell-based; settings: Table 3, each line another isolate
Procedure: as §1

[26] = first pair of lines (Example 1B susp.)
[27] = second pair of lines (Example 1B sol.)
[28] = Table 1, second pair of columns
[29] = Klebsiella pneumoniae, Table 1, first pair of columns, read-out: MIC
[30] = Serratia marcescens, Table 1, 10^-4 dilution, read-out: MIC
[31] = Table 1, second pair of columns, 10^-4 dilution
[32] = Proteus mirabilis, Table 1, 10^-4 dilution, read-out: MIC
[33] = BX1633, Table 1, 10^-2 dilution
[34] = BX1633, Table 1, 10^-3 dilution
[35] = BX1633, Table 1, second pair of columns, 10^-2 dilution
[36] = Pseudomonas aeruginosa, Table 1, first pair of columns, read-out: MIC
[37] = Enterobacter cloacae, Table 1, 10^-4 dilution, read-out: MIC

## CO/N=C(\C(=O)N[C@@H]1C(=O)N2C(C(=O)O)=C(COC(N)=O)CS[C@H]12)c1ccco1 [Cefuroxime, sodium 6R,7R3-carbamoyloxymethyl-7-(2Z)-2-methoxyimino(fur-2-yl)acetamidoceph-3-m-4-carboxylate, reference compound]
[1]; [26]
  concentration at 0.25 h: 34500 ng/mL
  concentration at 0.5 h: 26300 ng/mL
  concentration at 1 h: 7600 ng/mL
  concentration at 1.5 h: 3100 ng/mL
[1]; [27]
  concentration at 0.25 h: 25600 ng/mL
  concentration at 0.5 h: 20600 ng/mL
  concentration at 1 h: 6000 ng/mL
  concentration at 1.5 h: 2100 ng/mL
[2]; Table 1, first pair of columns
  MIC: 4 µg/mL
[2]; [28]
  MIC: 8 µg/mL
[3]
  MIC: > 125 µg/mL
[4]
  MIC: > 1000 µg/mL
[5]
  MIC: 1 µg/mL
[6]; Table 1, first pair of columns
  MIC: 2 µg/mL
[6]; [28]
  MIC: > 125 µg/mL
[7]; [29]
  MIC: 2 µg/mL
[8]; [30]
  MIC: > 125 µg/mL
[8]; [31]
  MIC: > 125 µg/mL
[9]; Table 1, first pair of columns
  MIC: 0.13 µg/mL
[9]; [28]
  MIC: 0.5 µg/mL
[10]
  MIC: 16 µg/mL
[11]; [32]
  MIC: 0.5 µg/mL
[11]; [31]
  MIC: 0.5 µg/mL
[12]; [33]
  MIC: 0.5 µg/mL
[12]; [34]
  MIC: 0.5 µg/mL
[12]; [35]
  MIC: 2 µg/mL
[13]; Table 1, first pair of columns
  MIC: 32 µg/mL
[13]; [28]
  MIC: 63 µg/mL
[14]; [36]
  MIC: > 125 µg/mL
[15]
  MIC: 0.5 µg/mL
[16]; [37]
  MIC: > 125 µg/mL
[17]
  Solubility: sol.
[18]
  MIC: 0.5 µg/mL
[19]
  MIC: 2 µg/mL
[20]
  MIC: 2 µg/mL
[21]
  MIC: 125 µg/mL
[22]; Table 1, first pair of columns
  MIC: 0.004 µg/mL
[22]; [28]
  MIC: 0.004 µg/mL
[23]; Table 1, first pair of columns
  MIC: 0.004 µg/mL
[23]; [28]
  MIC: 0.004 µg/mL

## CO/N=C(\C(=O)N[C@@H]1C(=O)N2C(C(=O)O)=C(CSc3nnnn3CCN)CS[C@H]12)c1ccco1 [Example 1B, 7-(α-Methoxyiminofurylacetamido)-3-(1-[2'-aminoethyl]-tetrazol-5-ylthiomethyl)-3-cephem-4-carboxylic Acid]
[24]
  MIC: 1 µg/mL
[1]; [26]
  concentration at 0.25 h: 35000 ng/mL
  concentration at 0.5 h: 17900 ng/mL
  concentration at 1 h: 5400 ng/mL
  concentration at 1.5 h: < 2500 ng/mL
[1]; [27]
  concentration at 0.25 h: 33600 ng/mL
  concentration at 0.5 h: 17400 ng/mL
  concentration at 1 h: 3900 ng/mL
  concentration at 1.5 h: < 2600 ng/mL
[2]; Table 1, first pair of columns
  MIC: 8 µg/mL (≈ 15.7 µM)
[2]; [28]
  MIC: 2 µg/mL (≈ 3.93 µM)
[3]
  MIC: 63 µg/mL (≈ 124 µM)
[4]
  MIC: 250 µg/mL (≈ 492 µM)
[5]
  MIC: 0.5 µg/mL (≈ 0.983 µM)
[6]; Table 1, first pair of columns
  MIC: 2 µg/mL (≈ 3.93 µM)
[6]; [28]
  MIC: > 125 µg/mL
[7]; [29]
  MIC: 1 µg/mL (≈ 1.97 µM)
[7]; Klebsiella pneumoniae, Table 1, second pair of columns, read-out: MIC
  MIC: 16 µg/mL (≈ 31.5 µM)
[7]; Table 1, first pair of columns
  MIC: 2 µg/mL (≈ 3.93 µM)
[7]; [28]
  MIC: 32 µg/mL (≈ 62.9 µM)
[8]; [30]
  MIC: 8 µg/mL (≈ 15.7 µM)
[8]; [31]
  MIC: 8 µg/mL (≈ 15.7 µM)
[9]; Table 1, first pair of columns
  MIC: 0.5 µg/mL (≈ 0.983 µM)
[9]; [28]
  MIC: 0.5 µg/mL (≈ 0.983 µM)
[10]
  MIC: 1 µg/mL (≈ 1.97 µM)
[11]; [32]
  MIC: 0.5 µg/mL (≈ 0.983 µM)
[11]; [31]
  MIC: 0.5 µg/mL (≈ 0.983 µM)
[12]; [33]
  MIC: 1 µg/mL (≈ 1.97 µM)
[12]; [34]
  MIC: 0.5 µg/mL (≈ 0.983 µM)
[12]; [35]
  MIC: 0.5 µg/mL (≈ 0.983 µM)
[13]; Table 1, first pair of columns
  MIC: 2 µg/mL (≈ 3.93 µM)
[13]; [28]
  MIC: 1 µg/mL (≈ 1.97 µM)
[14]; [36]
  MIC: 125 µg/mL (≈ 246 µM)
[14]; Pseudomonas aeruginosa, Table 1, second pair of columns, read-out: MIC
  MIC: 63 µg/mL (≈ 124 µM)
[14]; [28]
  MIC: 125 µg/mL (≈ 246 µM)
[15]
  MIC: ≤ 0.25 µg/mL
[16]; [37]
  MIC: 16 µg/mL (≈ 31.5 µM)
[16]; [31]
  MIC: 8 µg/mL (≈ 15.7 µM)
[17]
  Solubility: susp. and sol.
[19]
  MIC: 2 µg/mL (≈ 3.93 µM)
[25]
  MIC: 0.5 µg/mL (≈ 0.983 µM)
[20]
  MIC: 2 µg/mL (≈ 3.93 µM)
[21]
  MIC: > 63 µg/mL
[22]; Table 1, first pair of columns
  MIC: 0.008 µg/mL
[22]; [28]
  MIC: 0.004 µg/mL
[23]; Table 1, first pair of columns
  MIC: 0.008 µg/mL
[23]; [28]
  MIC: 0.004 µg/mL
